Entries after “also recorded” stand apart in the source; their conditions may differ.
What was measured:
Assay type in all cases: physicochemical
[1] = Color reaction experiment of phenol red (basicity, UV-Vis); settings: for peak showing basicity near 570 nm: methanol solution with phenol red, UV-Vis
Description: Next, it was confirmed that 2-methyl-2-imidazoline (2MI), which is generated by light irradiation to the compound (1)-2, is a stronger base than cyclohexylamine (CyA), which is an aliphatic amine, by a color reaction experiment of phenol red. First, 2MI, CyA and diazabicycloundecene (DBU) were prepared as bases, and 1.5 mL of methanol solution, in which the concentration was prepared at 2.0×10^−5 mol/L, was added to 1.5 mL of a methanol solution in which each base was dissolved. The basicity of each base was evaluated by measuring the UV-Vis spectrum of each of the solution.

[2] = Absorbance of compound in methanol under light irradiation (Test Examples 1, 2, 7, 8); settings: methanol solution; for molar absorption coefficient ε313: 313 nm; for molar absorption coefficient ε365: 365 nm
Description: (§1) The above-obtained compound (1)-1 was dissolved in methanol so as to have a concentration of 2.5×10^−5 mol/L. Then, using an LED lamp, the illuminance was set to 50 mW/cm^2, the exposure dose was set to 0, 50, 150 or 300 mJ/cm^2, and the obtained methanol solution was irradiated with light having a wavelength of 365 nm. Then, the absorbance of the compound (1)-1 was measured.
as §1, with “a mercury xenon” for “an LED”, “100” for “150”, “280” for “300”, “313” for “365”
as §1, with “(1)-3” for “(1)-1”, “1.5×10^−5” for “2.5×10^−5”, “100, 200” for “150”, “350” for “300”, “measured. In Test Example 7, the molar absorption coefficient was ε365=1.2×10^4 L/(mol cm).” for “measured.”
The above-obtained compound (1)-3 was dissolved in methanol so as to have a concentration of 1.5×10^−5 mol/L. Then, using a mercury xenon lamp, the illuminance was set to 10 mW/cm^2, the exposure dose was set to 0, 50, 100, 200 or 350 mJ/cm^2, and the obtained methanol solution was irradiated with light having a wavelength of 313 nm. Then, the absorbance of the compound (1)-3 was measured. In Test Example 8, the molar absorption coefficient was ε313=2.8×10^4 L/(mol cm).

[3] = Preservation stability of liquid mixture with base-reactive compound (9)-301 (Test Examples 3, 4); settings: with (9)-301 in methanol, dark place, 25° C., 6 days
Description: A base-reactive compound (9)-301 (0.10 g) as shown below, the compound (1)-1 (0.012 g, 8 molar % with respect to the methoxy group in the base-reactive compound), and methanol (0.51 g) were added in a glass bottle to prepare a liquid mixture.
The liquid mixture was stored in a dark place at 25° C. for 6 days. After storage for 6 days, the glass bottle was shaken or inverted to confirm that the liquid mixture in the glass bottle was liquid.
The base-reactive compound (9)-301 (0.10 g), the compound (2)-1 (0.013 g, 8 molar % with respect to the methoxy group in the base-reactive compound), and methanol (0.50 g) were added in a glass bottle to prepare a liquid mixture.
The liquid mixture was stored in a dark place at 25° C. for 4 days. After storage for 4 days, the glass bottle was shaken or inverted to confirm that the liquid mixture in the glass bottle was gelled.

[4] = pH test paper after irradiation of aqueous solution; settings: 365 nm
[5] = Solubility test; settings: chloroform, dimethyl sulfoxide and the like; compared with compound (1)-2

Compound	molar absorption coefficient ε313 [2]	molar absorption coefficient ε365 [2]	peak showing basicity near 570 nm [1]	further results
CC1=NCCN1 [Compound 2MI, 2-methyl-2-imidazoline]			a peak showing basicity appeared near 570 nm	relative basicity ([1]; from peak intensity near 570 nm): weaker than that of DBU; also recorded: stronger than that of CyA
CN(C)C(=NC(=O)/C=C/c1ccccc1O)N(C)C [Compound (1)-1]	16000 L/mol/cm	3100 L/mol/cm		state of liquid mixture after storage [3]: liquid
CC1=NCCN1C(=O)/C=C/c1ccccc1O [Compound (1)-2]				pH test paper after light irradiation [4]: discolored to the basic side
CC1=NCCN1C(=O)/C=C/c1cc(C(C)(C)C)cc(C(C)(C)C)c1O [Compound (1)-3]	28000 L/mol/cm	12000 L/mol/cm		solubility [5]: improved in solubility
NC1CCCCC1 [CyA, cyclohexylamine]			no peak showing basicity appeared near 570 nm	
C1CCC2=NCCCN2CC1 [DBU, diazabicycloundecene]			a peak showing basicity appeared near 570 nm	

Source: patent publication US11873354B2, “Photobase generator, compound, photoreactive composition, and reaction product” (Tokyo University of Science Foundation, priority 2019, dated 2024)
